Measurements from patent EP3294317B1, “ENHANCED ANTIBIOTIC COMPOSITION” (Universitat Autònoma de Barcelona, priority 2015, dated 2016).

Tests used:
[1] = tested on: S. maltophilia K279a; test: Colistin broth microdilution MIC with compound of formula I prepared in methanol or DMSO (Example 6); assay type: cell-based, Stenotrophomonas maltophilia; conditions: MIC in the presence of 1.0% DMSO / MIC in the presence of 0.1 mM of compound of formula I and 1.0% DMSO
Protocol: (§1) The potentiator effect of the compound of the invention in a new formulation was tested by using colistin sulphate as antibiotic in combination with the enhancer compound of formula I in front of resistant clinical isolates. […]
(§2) Tests were performed to determine the potentiator effect of the compound of the invention with two colistin resistant S. maltophilia strains as shown in Table 9. S. maltophilia K279a is a reference clinical strain. The origin of clinical strain OC323 together with K279a has been described previously (Huedo et al., Two Different rpf Clusters Distributed among a Population of Stenotrophomonas maltophilia Clinical Strains Display Differential Diffusible Signal Factor Production and Virulence Regulation, J. Bacteriol., 2014, 196, 2431-2442).
(§3) Selected compound of formula I was first dissolved in 100% of Methanol (HPLC Gradient Grade CHROMASOLV. Sigma, 34885-1L-R) to 10 mM. The compound was fairly soluble in methanol up to 10 mM and required vigorous vortex.
(§4) […] MICs were determined as described in the Example 1.
(§5) Strains colistin minimal inhibitory concentration (MIC), expressed in µg/mL, and the fold increase in bacterial susceptibility to colistin when combined with the potentiator compound previously dissolved in methanol ([…]) are shown in Table 9: TABLE 9

[2] = tested on: S. maltophilia OC323; test: as above; assay type: cell-based, Stenotrophomonas maltophilia; conditions: MIC in the presence of 1.0% DMSO / MIC in the presence of 0.1 mM of compound of formula I and 1.0% DMSO
Protocol: as §1, §2, §3, §4, §5

[3] = tested on: A. baumannii 6963; test: Colistin broth microdilution MIC with potentiator compounds, resistant clinical isolates (Example 3); assay type: cell-based, Acinetobacter baumannii; conditions: MIC in the presence of 1.0% DMSO / MIC in the presence of 0.1 mM compound and 1.0% DMSO, positive = increased susceptibility, 1 = no effect
Protocol: (§6) The potentiator effect of the compound of the invention and other compounds disclosed herein was tested using colistin sulfate as antibiotic and in combination with the enhancer compounds in front of resistant clinical isolates.
(§7) Tests were performed to determine the potentiator effect of the compound of the invention and other compounds disclosed herein with multidrug-resistant S. maltophilia and A. baumannii clinical strains as shown in Table 5: TABLE 5
(§8) For this experiment the potentiator compound was added to a colistin broth microdilution assay at a final concentration of 0.1mM. MICs were determined as described in the Example 1.
(§9) Colistin minimal inhibitory concentration (MIC), expressed in µg/mL, and the fold increase in bacterial susceptibility to colistin when combined with the potentiator compound (expressed as MIC in the presence of 1.0% DMSO / MIC in the presence of 0.1 mM of each potentiator compound and 1.0% DMSO) are shown in Table 6: […]

[4] = tested on: A. baumannii 6799; test: as above; assay type: cell-based, Acinetobacter baumannii; conditions: MIC in the presence of 1.0% DMSO / MIC in the presence of 0.1 mM compound and 1.0% DMSO, positive = increased susceptibility, 1 = no effect
Protocol: as §6, §7, §8, §9

[5] = tested on: Salmonella enterica subsp. enterica ATCC 14028; test: Colistin broth microdilution MIC with potentiator compounds (Example 1); assay type: cell-based; conditions: S. enterica ATCC 14028; MIC in the presence of 1.0% DMSO / MIC in the presence of 0.1 mM potentiator compound and 1.0% DMSO; positive = increased, negative = decreased susceptibility, 1 = no effect
[6] = tested on: Pseudomonas aeruginosa PAO1; test: as above; assay type: cell-based; conditions: P. aeruginosa PAO1; MIC in the presence of 1.0% DMSO / MIC in the presence of 0.1 mM potentiator compound and 1.0% DMSO; positive = increased, negative = decreased susceptibility, 1 = no effect
[7] = tested on: S. aureus F-182; test: Broth microdilution MIC of compound of formula I alone (Example 5); assay type: cell-based; conditions: Staphylococcus aureus, ATCC43300, Reference strain, ATCC 43300 (CLSI standard), read-out: Compound of formula I MIC in the presence of 1.0% DMSO
Protocol: (§10) The antimicrobial effect of the compound of formula I of the invention was tested in front of specific Gram-positive bacterium, Staphylococcus aureus, an agent usually involved in hospital-acquired infections. For this experiment the S. aureus reference and clinical isolates shown in Table 8 were used, including Methicillin-resistant S. aureus (MRSA): TABLE 8
(§11) Antimicrobial susceptibility testing of these isolates was performed using the broth microdilution (BMD) method, according to CLSI guidelines (Example 1).
(§12) Selected compound of formula I was first dissolved in 100% of sterile-filtered dimethyl sulfoxide (DMSO, Sigma, D2438) to 20 mM. 100 µL of bacterial suspension (final OD550nm=0.01) in MHB were added to the compound dilutions in each well (concentration range from 0.2 mM to 3.125 µM), and the final suspension was mixed and incubated without shaking at 37° C for 24 h before developing with 30 µL of a 0.01% aqueous solution of resazurin. For the experiment all bacteria were first grown overnight in CAMHB using CLSI recommended incubation conditions.
(§13) The compound MIC, expressed in mM, was defined as the lowest concentration of compound at which no visible growth was obtained.

[8] = tested on: S. aureus Newman; test: as above; assay type: cell-based; conditions: Staphylococcus aureus, NBRC102137 / NEWMAN, Reference strain, NBRC 102137, read-out: Compound of formula I MIC in the presence of 1.0% DMSO
Protocol: as §10, §11, §12, §13

[9] = tested on: S. aureus SA0004; test: as above; assay type: cell-based; conditions: Staphylococcus aureus, Clinical strain, (MRSA, and resistant to ciprofloxacin and cloxacillin), read-out: Compound of formula I MIC in the presence of 1.0% DMSO
Protocol: as §10, §11, §12, §13

[10] = tested on: S. aureus Seatle 1945; test: as above; assay type: cell-based; conditions: Staphylococcus aureus, ATCC25923, Reference strain, ATCC 25923, read-out: Compound of formula I MIC in the presence of 1.0% DMSO
Protocol: as §10, §11, §12, §13

[11] = tested on: S. aureus RN4220; test: as above; assay type: cell-based; conditions: Staphylococcus aureus, RN4220, read-out: Compound of formula I MIC in the presence of 1.0% DMSO
Protocol: as §10, §11, §12, §13

[12] = tested on: S. aureus RN6390; test: as above; assay type: cell-based; conditions: Staphylococcus aureus, RN6390, read-out: Compound of formula I MIC in the presence of 1.0% DMSO
Protocol: as §10, §11, §12, §13

[13] = tested on: S. aureus SA0003; test: as above; assay type: cell-based; conditions: Staphylococcus aureus, Clinical strain, (resistant to penicillin), read-out: Compound of formula I MIC in the presence of 1.0% DMSO
Protocol: as §10, §11, §12, §13

[14] = tested on: S. aureus RN6911; test: as above; assay type: cell-based; conditions: Staphylococcus aureus, RN6911, read-out: Compound of formula I MIC in the presence of 1.0% DMSO
Protocol: as §10, §11, §12, §13

[15] = tested on: S. aureus V8; test: as above; assay type: cell-based; conditions: Staphylococcus aureus, ATCC49775, Reference strain, ATCC 49775, read-out: Compound of formula I MIC in the presence of 1.0% DMSO
Protocol: as §10, §11, §12, §13

With CN(C)CCNC(=O)c1cccc(CNC(=O)Nc2ccc3c(c2)Cc2ccccc2-3)c1 [I, N-[2-(dimethylamino)ethyl]-3-[(9H-fluoren-2-ylcarbamoylamino)methyl]benzamide] the “Fold increase in bacterial susceptibility to colistin” value (shortened to “Fold increase”) [1] was “+4 fold”, the “Fold increase” value [2] was “+4 fold” and the “Fold increase” value [3] was >4 fold. The “Fold increase” value [4] was “+8 fold”, the “Fold increase” value [5] was “+2 fold” and the “Fold increase” value [6] was “+2 fold”. The MIC [7] was 200 µM, the MIC [8] was 200 µM and the MIC [9] was 200 µM. For the same compound, the MIC [10] was 200 µM, the MIC [11] was 200 µM and the MIC [12] was 200 µM. The MIC [13] was 100 µM, the MIC [14] was 200 µM and the MIC [15] was 200 µM.
